Marks after values point to notes of the source that are not given here.
Tested on: hypertensive OA patients
Source text: Method: A 4-week, multicenter, randomized, double-blind, double-dummy, parallel group study of hypertensive OA patients aged ≥50 years (office BP ≤140/90 mmHg) on stable antihypertensive treatment. […] The primary outcome measure was the change from baseline (BL) at Week 4 in 24-hour mean ambulatory systolic BP (MASBP) in the intent-to-treat (ITT) population using ANCOVA. The secondary analyses included 24-hour mean ambulatory diastolic BP (MADBP […]. In addition, a post-hoc subgroup analysis was performed to evaluate the primary and secondary analysis at Week 4 (using ANCOVA) for patients exclusively on ACE inhibitors as antihypertensive drug.

[1] = change from baseline, lumiracoxib (n=140) vs ibuprofen (n=132), patients exclusively on ACE-inhibitors, p<0.001

SMILES	increase in MASBP (change from BL at Week 4, 24-hour MASBP, ibuprofen 600 mg tid) [mmHg]	decrease in MASBP (change from BL at Week 4, 24-hour MASBP, lumiracoxib 100 mg od) [mmHg]	24 h MADBP Difference in LSM (95% CI) [1]	24 h MASBP Difference in LSM (95% CI) [1]	Clinically relevant increase (>= 5 mm Hg increase in 24 h MADBP and/or >= 10 mm Hg increase in 24h MASBP), number of patients (human, in vivo, 4 weeks) [patients]	Clinically relevant increase (>= 5 mm Hg increase in 24 h MADBP and/or >= 10 mm Hg increase in 24h MASBP), share of patients (human, in vivo, 4 weeks) [%]	24-hour MADBP, estimated treatment difference (lumiracoxib 100 mg od vs ibuprofen 600 mg tid, Week 4, [95% CI: -2.7, -1.3], p<0.001) [mmHg]
CC(C)Cc1ccc(C(C)C(=O)O)cc1 (stereo not shown) [ibuprofen]	2.2						
Cc1ccc(Nc2c(F)cccc2Cl)c(CC(=O)O)c1 [lumiracoxib, 5-methyl-2-(2'-chloro-6'-fluoroanilino)phenylacetic acid]		2.7	-3.9 (-5.1,-2.7)*	-7.5 (-9.6, -5.5)*	13	9.3	-2

From patent EP2014284A1, “Pharmaceutical compositions and uses” (NOVARTIS AG, priority 2007, dated 2009)
